These results are taken from patent US9629942B2, “Limus-coated medical devices” (Innora GmbH, priority 2010, dated 2017).

Molecules are shown by their SMILES.

Data set [1] is described as follows: Stability of sirolimus on a balloon catheter. The format is physicochemical. The note with it: at the dose level applied. Here is the method:
Balloons for percutaneous transluminal coronary angioplasty (Cordis Fire Star catheters, Cordis Corp., USA) were coated either with sirolimus alone or combined with different amounts of BHT. Coated balloons were tested in respect of sirolimus loss during the passage through a hemostatic valve, Medtronic Launcher JL 3.5 6F guiding catheter, and one minute in stirred blood (37° C.).

For the next data set, the system named is neointimal proliferation. As to the kind of experiment: Inhibition of neointimal proliferation. The conditions noted are these: BHT without sirolimus, at the dose level applied. It counts as in vivo.

Turning to `Cc1cc(C(C)(C)C)c(O)c(C(C)(C)C)c1` [BHT, butylated hydroxytoluene], the “Effect of BHT on stability of sirolimus on a balloon catheter” value in data set [1] was “does not significantly increase the stability of sirolimus”. Also, the “Inhibition of neointimal proliferation” value with neointimal proliferation is reported as “does not inhibit neointimal proliferation”.
